Measured values taken from patent US10787446B2 (GENENTECH, INC., priority 2015, dated 2020).

Target: T1, hNav1.7 and the β1 subunit (Homo sapiens, UniProt Q15858)
T1 construct: expressed in transfected cells
Test: Tritiated compound competitive binding to membranes from cells heterologously expressing hNav1.7 and the β1 subunit (LBA)
Conditions: competition with 100 pM [3H]compound, 18 h, room temperature; IC50 by 4 parameter logistic model
Procedure: Example 235 Tritiated Compound Binding to Membranes Isolated from Cells that Heterologously Express hNav1.7 and the β1 Subunit
Preparation of membranes containing recombinantly expressed sodium channels: Frozen recombinant cell pellets were thawed on ice and diluted to 4 times the cell pellet weight with ice cold 50 mM Tris HCl, pH 7.4 buffer. The cell suspensions were homogenized on ice using a motorized glass dounce homogeniser. Homogenates were further diluted 8.4 times with ice cold 50 mM Tris HCl, pH 7.4 buffer and then centrifuged at 200×g at 4° C. for 15 min. The supernatants were collected and centrifuged at 10000×g at 4° C. for 50 min. The pellets were then re-suspended in 100 mM NaCl, 20 mM Tris HCl, pH 7.4 buffer containing 1% v/v protease inhibitors (Calbiochem) and re-homogenized on ice. The homogenized membranes were then processed through a syringe equipped with a 26 gauge needle. Protein concentrations were determined by Bradford Assay and the membranes were stored at −80° C.
Radioligand Binding Studies:
Saturation experiments. A competitive NaV1.7 inhibitor having a methyl group was tritiated. Three tritiums were incorporated in place of methyl hydrogens to generate [^3H]compound. Binding of this radioligand was performed in 5 mL borosilicate glass test tubes at room temperature. Binding was initiated by adding membranes to increasing concentrations of [^3H]compound in 100 mM NaCl, 20 mM Tris HCl, pH 7.4 buffer containing 0.01% w/v bovine serum albumin (BSA) for 18 h. […] After 18 h, the reactants were filtered through GF/C glass fiber filters presoaked in 0.5% w/v polyethylene imine. […] [^3H]compound bound to filters was quantified by liquid scintillation counting.
Competitive Binding Experiments:
Binding reactions were performed in 96-well polypropylene plates at room temperature for 18 h. In 360 μL, membranes were incubated with 100 pM [^3H]compound and increasing concentrations of Test Compound. […] Reactions were transferred and filtered through 96-well glass fiber/C filter plates presoaked with 0.5% polyethylene imine. The filtered reactions were washed 5 times with 200 μL ice cold buffer containing 0.25% BSA. Bound radioactivity was determined by liquid scintillation counting.
Data Analysis: For saturation experiments, non-specific binding was subtracted from total binding to provide specific binding and these values were recalculated in terms of pmol ligand bound per mg protein. Saturation curves were constructed and dissociation constants were calculated using the single site ligand binding model: Beq=(Bmax*X)/(X+Kd), where Beq is the amount of ligand bound at equilibrium, Bmax is the maximum receptor density, Kd is the dissociation constant for the ligand, and X is the free ligand concentration. For competition studies percent inhibition was determined and IC50 values were calculated using a 4 parameter logistic model (% inhibition=(A+((B−A)/(1+((x/C)^D)))) using XLfit, where A and B are the maximal and minimum inhibition respectively, C is the IC50 concentration and D is the (Hill) slope.

T1 sequence (Q15858 whole entry): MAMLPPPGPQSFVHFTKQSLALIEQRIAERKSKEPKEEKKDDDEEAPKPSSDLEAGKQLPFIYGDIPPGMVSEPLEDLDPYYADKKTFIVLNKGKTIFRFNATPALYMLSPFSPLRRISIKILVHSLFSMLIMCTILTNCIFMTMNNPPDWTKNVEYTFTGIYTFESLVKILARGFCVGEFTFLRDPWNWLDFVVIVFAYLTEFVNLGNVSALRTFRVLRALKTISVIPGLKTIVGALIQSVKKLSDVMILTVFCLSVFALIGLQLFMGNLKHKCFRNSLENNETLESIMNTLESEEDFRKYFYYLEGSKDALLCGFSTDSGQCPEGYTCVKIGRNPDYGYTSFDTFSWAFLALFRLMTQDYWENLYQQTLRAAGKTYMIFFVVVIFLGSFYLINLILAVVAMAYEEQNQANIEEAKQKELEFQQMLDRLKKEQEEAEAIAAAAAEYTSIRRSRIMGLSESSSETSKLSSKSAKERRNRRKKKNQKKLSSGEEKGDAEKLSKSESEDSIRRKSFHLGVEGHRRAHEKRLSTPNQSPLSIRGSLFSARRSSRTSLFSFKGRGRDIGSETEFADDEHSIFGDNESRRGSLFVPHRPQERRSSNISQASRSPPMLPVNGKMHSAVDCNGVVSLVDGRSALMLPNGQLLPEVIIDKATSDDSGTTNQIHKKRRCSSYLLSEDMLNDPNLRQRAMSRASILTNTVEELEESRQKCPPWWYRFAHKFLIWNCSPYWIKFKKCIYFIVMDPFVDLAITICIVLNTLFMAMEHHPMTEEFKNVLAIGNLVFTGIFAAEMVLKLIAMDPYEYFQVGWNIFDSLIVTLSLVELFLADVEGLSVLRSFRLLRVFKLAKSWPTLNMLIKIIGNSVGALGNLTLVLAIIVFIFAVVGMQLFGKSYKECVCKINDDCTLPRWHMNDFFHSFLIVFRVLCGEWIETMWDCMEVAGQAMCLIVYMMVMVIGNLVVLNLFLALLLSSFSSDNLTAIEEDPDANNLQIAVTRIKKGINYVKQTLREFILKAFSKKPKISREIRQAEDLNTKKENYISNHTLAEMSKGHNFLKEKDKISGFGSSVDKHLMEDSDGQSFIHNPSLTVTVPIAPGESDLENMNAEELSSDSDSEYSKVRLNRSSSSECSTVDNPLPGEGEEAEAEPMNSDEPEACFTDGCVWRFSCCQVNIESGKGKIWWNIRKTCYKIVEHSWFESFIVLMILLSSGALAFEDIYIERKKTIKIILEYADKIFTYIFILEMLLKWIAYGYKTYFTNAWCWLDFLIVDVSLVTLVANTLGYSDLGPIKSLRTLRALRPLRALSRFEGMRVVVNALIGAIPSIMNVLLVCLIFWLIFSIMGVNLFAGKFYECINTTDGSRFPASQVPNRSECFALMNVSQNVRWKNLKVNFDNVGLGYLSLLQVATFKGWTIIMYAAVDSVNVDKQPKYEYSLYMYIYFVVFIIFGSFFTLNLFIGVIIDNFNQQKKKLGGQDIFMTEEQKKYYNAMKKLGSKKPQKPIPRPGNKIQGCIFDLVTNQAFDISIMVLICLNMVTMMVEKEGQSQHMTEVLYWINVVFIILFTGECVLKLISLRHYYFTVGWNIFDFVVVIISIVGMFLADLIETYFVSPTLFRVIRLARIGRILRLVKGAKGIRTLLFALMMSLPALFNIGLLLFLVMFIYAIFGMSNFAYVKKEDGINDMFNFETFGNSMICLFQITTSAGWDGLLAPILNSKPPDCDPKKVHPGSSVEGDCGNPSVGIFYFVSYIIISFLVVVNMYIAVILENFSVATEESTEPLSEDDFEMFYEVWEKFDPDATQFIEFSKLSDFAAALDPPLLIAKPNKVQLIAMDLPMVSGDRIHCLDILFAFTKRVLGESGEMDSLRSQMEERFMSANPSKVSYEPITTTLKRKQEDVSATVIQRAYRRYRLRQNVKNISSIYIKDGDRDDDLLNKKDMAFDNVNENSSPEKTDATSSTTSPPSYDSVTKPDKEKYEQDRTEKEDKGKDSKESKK
T1 sequence (Q07699 19-218 partner): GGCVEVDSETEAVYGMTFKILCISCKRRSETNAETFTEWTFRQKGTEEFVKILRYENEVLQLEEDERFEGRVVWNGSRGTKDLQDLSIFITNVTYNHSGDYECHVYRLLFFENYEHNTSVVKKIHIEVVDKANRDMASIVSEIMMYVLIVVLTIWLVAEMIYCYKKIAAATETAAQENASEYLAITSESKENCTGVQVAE

Row | Nav1.7 (LBA) [µM] | Compound
1 | 8.9 | O=S(=O)(Nc1ncns1)c1ccc2c(c1)OCC[C@@H]2N1CC[C@@H](C(F)(F)F)C[C@H]1c1ccn[nH]1 (single isomer, unassigned) [Example 143]
2 | 0.0941 | O=S(=O)(Nc1ncns1)c1ccc2c(c1)OCC[C@@H]2N1CCNC[C@H]1c1ccc(F)cc1 [Example 218, (S)-4-((R)-2-(4-fluorophenyl)piperazin-1-yl)-N-(1,2,4-thiadiazol-5-yl)chromane-7-sulfonamide]
3 | 0.00214 | O=S(=O)(Nc1ncns1)c1ccc2c(c1)OCC[C@@H]2N1CC[C@@H](C(F)F)C[C@H]1c1ccc(F)cc1 [Example 186, (S)-4-((2S,4R)-4-(difluoromethyl)-2-(4-fluorophenyl)piperidin-1-yl)-N-(1,2,4-thiadiazol-5-yl)chroman-7-sulfonamide]
4 | 0.633 | O=S(=O)(Nc1nccs1)c1cc2c(cc1F)[C@@H](N1CC[C@H](C(F)(F)F)C[C@@H]1c1ccc(F)cc1)CCO2 [Example 215, (S)-6-fluoro-4-((2R,4S)-2-(4-fluorophenyl)-4-(trifluoromethyl)piperidin-1-yl)-N-(thiazol-2-yl)chromane-7-sulfonamide]
5 | 0.00305 | O=S(=O)(Nc1ncns1)c1ccc2c(c1)OCC[C@@H]2N1CC[C@H](OC(F)(F)F)C[C@@H]1c1ccc(F)cc1 [Example 175, (S)-4-((2R,4S)-2-(4-fluorophenyl)-4-(trifluoromethoxy)piperidin-1-yl)-N-(1,2,4-thiadiazol-5-yl)chroman-7-sulfonamide]
6 | 4.35 | O=S(=O)(Nc1ncns1)c1ccc2c(c1)OCC[C@@H]2N1CCCC[C@H]1C1CCCCC1 (single isomer, unassigned) [Example 155]
7 | 0.174 | CCN1CCN([C@H]2CCOc3cc(S(=O)(=O)Nc4ncns4)ccc32)[C@H](c2ccc(F)cc2)C1 [Example 224, (S)-4-((R)-4-ethyl-2-(4-fluorophenyl)piperazin-1-yl)-N-(1,2,4-thiadiazol-5-yl)chromane-7-sulfonamide]
8 | 0.504 | O=S(=O)(Nc1ncns1)c1ccc2c(c1)C(F)(F)CC[C@H]2N1CCCC[C@H]1c1cccnc1 (single isomer, unassigned) [Example 228]
9 | 0.039 | O=S(=O)(Nc1ncns1)c1ccc2c(c1)OCC[C@@H]2NC(CCC(F)(F)F)c1ccccc1 (stereo partly drawn) [Example 207, (4S)—N-(1,2,4-thiadiazol-5-yl)-4-((4,4,4-trifluoro-1-phenylbutyl)amino)chroman-7-sulfonamide]
10 | 0.00144 | O=S(=O)(Nc1nccs1)c1cc2c(cc1F)[C@H](N1CC[C@@H](C(F)(F)F)C[C@H]1c1ccc(F)cc1)CCO2 [Example 214, (R)-6-fluoro-4-((2S,4R)-2-(4-fluorophenyl)-4-(trifluoromethyl)piperidin-1-yl)-N-(thiazol-2-yl)chromane-7-sulfonamide]
11 | 0.0305 | CS(=O)(=O)N1CCN([C@H]2CCOc3cc(S(=O)(=O)Nc4ncns4)ccc32)[C@H](c2ccc(F)cc2)C1 [Example 226, (S)-4-((R)-2-(4-fluorophenyl)-4-(methylsulfonyl)piperazin-1-yl)-N-(1,2,4-thiadiazol-5-yl)chromane-7-sulfonamide]
12 | 0.0274 | O=S(=O)(Nc1nccs1)c1cc2c(cc1F)[C@H](N1CC[C@H](C(F)(F)F)C[C@@H]1c1ccn[nH]1)CCO2 [Example 213, (R)-4-((2R,4S)-2-(1H-pyrazol-5-yl)-4-(trifluoromethyl)piperidin-1-yl)-6-fluoro-N-(thiazol-2-yl)chromane-7-sulfonamide]
13 | 0.351 | O=S(=O)(Nc1nccs1)c1cc2c(cc1F)[C@H](N1CC[C@@H](C(F)(F)F)C[C@H]1c1ccc(F)c(F)c1)CCO2 [Example 197, (R)-4-((2S,4R)-2-(3,4-difluorophenyl)-4-(trifluoromethyl)piperidin-1-yl)-6-fluoro-N-(thiazol-2-yl)chroman-7-sulfonamide]
14 | 0.00399 | O=S(=O)(Nc1ncns1)c1ccc2c(c1)OCC[C@@H]2N1CC[C@@H](CF)C[C@H]1c1ccc(F)cc1 [Example 182, (S)-4-((2S,4R)-4-(fluoromethyl)-2-(4-fluorophenyl)piperidin-1-yl)-N-(1,2,4-thiadiazol-5-yl)chroman-7-sulfonamide]
15 | 0.0448 | O=S(=O)(Nc1nccs1)c1cc2c(cc1F)[C@H](N1CC[C@@H](C(F)(F)F)C[C@H]1c1ccccn1)CCO2 [Example 190, (R)-6-fluoro-4-((2S,4R)-2-(pyridin-2-yl)-4-(trifluoromethyl)piperidin-1-yl)-N-(thiazol-2-yl)chroman-7-sulfonamide]
16 | 0.0057 | O=S(=O)(Nc1ncns1)c1ccc2c(c1)OCC[C@@H]2N1CCN(S(=O)(=O)C(F)(F)F)C[C@H]1c1ccc(F)cc1 [Example 225, (S)-4-((R)-2-(4-fluorophenyl)-4-((trifluoromethyl)sulfonyl)piperazin-1-yl)-N-(1,2,4-thiadiazol-5-yl)chromane-7-sulfonamide]

More lines, now with the values behind:

Row | Compound | Nav1.7 (LBA) [µM]
17 | O=S(=O)(Nc1ncns1)c1ccc2c(c1)OCC[C@@H]2N1CCC(F)(F)C[C@H]1c1ccc(F)cc1 (single isomer, unassigned) [Example 134] | 0.00295
18 | CC(C)[C@@H]1CCN([C@H]2CCOc3cc(S(=O)(=O)Nc4ncns4)ccc32)[C@H](c2ccccc2)C1 (single isomer, unassigned) [Example 127] | 0.00883
19 | O=S(=O)(Nc1ncccn1)c1cc2c(cc1F)[C@H](N1CCCC[C@H]1c1ccccc1)CCO2 (single isomer, unassigned) [Example 95] | 1.54
20 | O=S(=O)(Nc1ncns1)c1ccc2c(c1)OCC[C@@H]2N1CCc2ccccc2[C@H]1c1ccccc1 (single isomer, unassigned) [Example 80] | 0.142
21 | O=S(=O)(Nc1nccs1)c1cc2c(cc1F)[C@@H](N1CC[C@@H](C(F)(F)F)C[C@H]1c1ccc(F)cc1)CCO2 (single isomer, unassigned) [Example 92] | 0.000828
22 | O=S(=O)(Nc1nccs1)c1cc2c(cc1F)[C@H](N1CCCC[C@H]1c1ccccc1)CCO2 (single isomer, unassigned) [Example 91] | 0.109
23 | O=S(=O)(Nc1ncns1)c1ccc2c(c1)OCC[C@H]2N1CCC(F)(F)C[C@H]1c1ccc(F)cc1 (single isomer, unassigned) [Example 133] | 0.0467
24 | Cn1nccc1[C@@H]1CCCCN1Cc1cc(F)c(S(=O)(=O)Nc2ncns2)cc1F (single isomer, unassigned) [Example 15] | 9.36
25 | C[C@H](c1ccc(S(=O)(=O)Nc2ncns2)cc1Cl)N1CCCC[C@@H]1c1ccccc1 (single isomer, unassigned) [Example 60] | 0.33
26 | Nc1cc([C@@H]2CCCCN2Cc2cc(F)c(S(=O)(=O)Nc3ncns3)cc2F)ccn1 (single isomer, unassigned) [Example 13] | 0.158
27 | O=S(=O)(Nc1ncns1)c1ccc2c(c1)OCC[C@@H]2N1CCCC[C@@H]1c1ccc(F)cc1 (single isomer, unassigned) [Example 78] | 0.679
28 | O=S(=O)(Nc1ncns1)c1ccc(CN2CCCC[C@@H]2c2ccccc2)c(Cl)c1 [Example 64, (R)-3-chloro-4-((2-phenylpiperidin-1-yl)methyl)-N-(1,2,4-thiadiazol-5-yl)benzenesulfonamide] | 0.965
29 | O=S(=O)(Nc1ncns1)c1cc(F)c(CN2CC[C@H](F)C[C@H]2c2ccccc2)cc1F (single isomer, unassigned) [Example 31] | 0.374
30 | Cn1nccc1[C@H]1CCCCN1Cc1cc(F)c(S(=O)(=O)Nc2ncns2)cc1F (single isomer, unassigned) [Example 14] | 0.22
31 | CC(C)(O)[C@H]1CCN([C@@H]2CCOc3cc(S(=O)(=O)Nc4ncns4)ccc32)[C@@H](c2ccc(F)cc2)C1 (single isomer, unassigned) [Example 135] | 0.0271
32 | O=S(=O)(Nc1ncccn1)c1cc2c(cc1F)C(N1CCC(C(F)(F)F)CC1c1ccc(F)cc1)CCO2 (racemic) [Example 96, (±)-(R)-6-fluoro-4-((cis)-2-(4-fluorophenyl)-4-(trifluoromethyl)piperidin-1-yl)-N-(pyrimidin-2-yl)chromane-7-sulfonamide] | 0.00994
